Measurements from ChEMBL document CHEMBL4706552, “Discovery of 4-methyl-N-(4-((4-methylpiperazin- 1-yl)methyl)-3-(trifluoromethyl)phenyl)-3-((6-(pyridin-3-yl)-1H-pyrazolo[3,4-d]pyrimidin-4-yl)-oxy)benzamide as a potent inhibitor of RET and its gatekeeper mutant” (Eur J Med Chem, 2020).

Tested on: not listed separately
Experiment: Cytotoxicity against mouse BaF3 cells assessed as reduction in cell proliferation measured after 48 hrs by MTS assay
Format: cell-based
Settings: not given
With Cc1ccc(C(=O)Nc2ccc(CN3CCN(C)CC3)c(C(F)(F)F)c2)cc1Oc1nc(-c2ccncc2)nc2c1cnn2C the GI50 at 48 h was 2620 nM. With Cc1ccc(Oc2nc(-c3ccncc3)nc3[nH]ncc23)cc1NC(=O)c1ccc(CN2CCN(C)CC2)c(C(F)(F)F)c1 the GI50 at 48 h was 3450 nM. In the case of CO[C@]1(C(=O)N[C@@H](C)c2ccc(-n3cc(F)cn3)nc2)CC[C@H](c2nc(C)cc(Nc3cc(C)[nH]n3)n2)CC1 [PRALSETINIB], the GI50 at 48 h is reported as 1270 nM. Work on CN1CCN(Cc2ccc(C(=O)Nc3cc(Oc4nc(-c5ccncc5)nc5[nH]ncc45)ccc3Cl)cc2C(F)(F)F)CC1 yielded a GI50 at 48 h of 1010 nM. For Cc1ccc(C(=O)Nc2ccc(CN3CCN(C)CC3)c(C(F)(F)F)c2)cc1Oc1nc(-c2ccoc2)nc2c1cnn2C, the GI50 at 48 h was > 10000 nM. For Cc1ccc(Oc2nc(-c3ccncc3)nc3c2cnn3C)cc1NC(=O)c1ccc(CN2CCN(C)CC2)c(C(F)(F)F)c1, the GI50 at 48 h was 2780 nM. In the case of Cc1ccc(C(=O)Nc2ccc(CN3CCN(C)CC3)c(C(F)(F)F)c2)cc1Oc1nc(-c2cccnc2)nc2c1cnn2C, the GI50 at 48 h is reported as 1290 nM. Cc1ccc(C(=O)Nc2ccc(CN3CCN(C)CC3)c(C(F)(F)F)c2)cc1Oc1nc(-c2ccsc2)nc2c1cnn2C gave a GI50 at 48 h of 5070 nM. Compound COc1cc2nccc(Oc3ccc(NC(=O)C4(C(=O)Nc5ccc(F)cc5)CC4)cc3)c2cc1OC [CABOZANTINIB] has a GI50 at 48 h of 7910 nM. For Cc1ccc(C(=O)Nc2ccc(CN3CCN(C)CC3)c(C(F)(F)F)c2)cc1Oc1nc(-c2cccc(O)c2)nc2c1cnn2C, the GI50 at 48 h was 2640 nM. CN1CCN(Cc2ccc(C(=O)Nc3cc(Oc4nc(-c5ccncc5)nc5c4cnn5C)ccc3Cl)cc2C(F)(F)F)CC1 gave a GI50 at 48 h of 3400 nM.

Tested on: BaF3
Experiment: Inhibition of CCDC6-RET V804M mutant fusion protein (unknown origin) expressed in mouse BaF3 cells assessed as reduction in cell proliferation measured after 48 hrs by MTS assay
Format: cell-based
Settings: Homo sapiens
Compound Cc1ccc(C(=O)Nc2ccc(CN3CCN(C)CC3)c(C(F)(F)F)c2)cc1Oc1nc(-c2ccncc2)nc2c1cnn2C has a GI50 of 220 nM. Work on Cc1ccc(Oc2nc(-c3ccncc3)nc3[nH]ncc23)cc1NC(=O)c1ccc(CN2CCN(C)CC2)c(C(F)(F)F)c1 yielded a GI50 of 1890 nM. For CO[C@]1(C(=O)N[C@@H](C)c2ccc(-n3cc(F)cn3)nc2)CC[C@H](c2nc(C)cc(Nc3cc(C)[nH]n3)n2)CC1 [PRALSETINIB], the GI50 was < 4 nM. CN1CCN(Cc2ccc(C(=O)Nc3cc(Oc4nc(-c5ccncc5)nc5[nH]ncc45)ccc3Cl)cc2C(F)(F)F)CC1 showed a GI50 of 7380 nM. Cc1ccc(C(=O)Nc2ccc(CN3CCN(C)CC3)c(C(F)(F)F)c2)cc1Oc1nc(-c2ccoc2)nc2c1cnn2C gave a GI50 of 529 nM. Compound Cc1ccc(Oc2nc(-c3ccncc3)nc3c2cnn3C)cc1NC(=O)c1ccc(CN2CCN(C)CC2)c(C(F)(F)F)c1 has a GI50 of 4870 nM. Cc1ccc(C(=O)Nc2ccc(CN3CCN(C)CC3)c(C(F)(F)F)c2)cc1Oc1nc(-c2cccnc2)nc2c1cnn2C gave a GI50 of 136 nM. With Cc1ccc(C(=O)Nc2ccc(CN3CCN(C)CC3)c(C(F)(F)F)c2)cc1Oc1nc(-c2ccsc2)nc2c1cnn2C the GI50 was 736 nM. For COc1cc2nccc(Oc3ccc(NC(=O)C4(C(=O)Nc5ccc(F)cc5)CC4)cc3)c2cc1OC [CABOZANTINIB], the GI50 was 1000 nM. Work on Cc1ccc(C(=O)Nc2ccc(CN3CCN(C)CC3)c(C(F)(F)F)c2)cc1Oc1nc(-c2cccc(O)c2)nc2c1cnn2C yielded a GI50 of 499 nM. In the case of CN1CCN(Cc2ccc(C(=O)Nc3cc(Oc4nc(-c5ccncc5)nc5c4cnn5C)ccc3Cl)cc2C(F)(F)F)CC1, the GI50 is reported as > 10000 nM.

Target: Kinesin-1 heavy chain/ Tyrosine-protein kinase receptor RET (Homo sapiens) (UniProt P07949+P33176)
Sequence (P07949 29-1114 limits assumed): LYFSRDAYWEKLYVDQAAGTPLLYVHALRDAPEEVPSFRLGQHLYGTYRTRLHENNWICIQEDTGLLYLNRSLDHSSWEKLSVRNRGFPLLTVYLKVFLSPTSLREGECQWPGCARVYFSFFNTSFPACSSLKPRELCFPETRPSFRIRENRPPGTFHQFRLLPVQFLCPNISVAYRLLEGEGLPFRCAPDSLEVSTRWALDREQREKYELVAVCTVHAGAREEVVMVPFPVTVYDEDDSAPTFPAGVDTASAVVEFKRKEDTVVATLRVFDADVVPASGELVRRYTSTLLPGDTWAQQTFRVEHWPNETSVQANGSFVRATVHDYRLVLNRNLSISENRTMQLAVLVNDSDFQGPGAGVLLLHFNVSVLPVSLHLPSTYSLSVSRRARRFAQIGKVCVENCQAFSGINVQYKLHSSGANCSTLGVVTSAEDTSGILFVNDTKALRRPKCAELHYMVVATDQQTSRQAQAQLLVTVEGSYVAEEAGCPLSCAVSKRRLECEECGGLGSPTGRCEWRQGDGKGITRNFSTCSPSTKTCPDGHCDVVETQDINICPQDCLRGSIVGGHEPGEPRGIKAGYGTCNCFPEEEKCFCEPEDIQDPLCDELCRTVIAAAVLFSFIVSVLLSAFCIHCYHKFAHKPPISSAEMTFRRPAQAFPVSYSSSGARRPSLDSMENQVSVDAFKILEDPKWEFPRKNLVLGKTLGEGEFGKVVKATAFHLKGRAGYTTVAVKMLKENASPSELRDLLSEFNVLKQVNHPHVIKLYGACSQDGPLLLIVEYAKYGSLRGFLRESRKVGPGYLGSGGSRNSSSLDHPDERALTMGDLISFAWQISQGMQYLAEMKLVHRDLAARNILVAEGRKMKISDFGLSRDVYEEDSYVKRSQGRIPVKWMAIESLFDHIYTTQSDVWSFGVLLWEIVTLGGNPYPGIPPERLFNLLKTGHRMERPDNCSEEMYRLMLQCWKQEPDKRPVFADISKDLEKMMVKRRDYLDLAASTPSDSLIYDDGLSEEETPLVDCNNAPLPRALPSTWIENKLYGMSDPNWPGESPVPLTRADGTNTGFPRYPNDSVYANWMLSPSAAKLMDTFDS
Sequence (P33176 2-963 partner limits assumed): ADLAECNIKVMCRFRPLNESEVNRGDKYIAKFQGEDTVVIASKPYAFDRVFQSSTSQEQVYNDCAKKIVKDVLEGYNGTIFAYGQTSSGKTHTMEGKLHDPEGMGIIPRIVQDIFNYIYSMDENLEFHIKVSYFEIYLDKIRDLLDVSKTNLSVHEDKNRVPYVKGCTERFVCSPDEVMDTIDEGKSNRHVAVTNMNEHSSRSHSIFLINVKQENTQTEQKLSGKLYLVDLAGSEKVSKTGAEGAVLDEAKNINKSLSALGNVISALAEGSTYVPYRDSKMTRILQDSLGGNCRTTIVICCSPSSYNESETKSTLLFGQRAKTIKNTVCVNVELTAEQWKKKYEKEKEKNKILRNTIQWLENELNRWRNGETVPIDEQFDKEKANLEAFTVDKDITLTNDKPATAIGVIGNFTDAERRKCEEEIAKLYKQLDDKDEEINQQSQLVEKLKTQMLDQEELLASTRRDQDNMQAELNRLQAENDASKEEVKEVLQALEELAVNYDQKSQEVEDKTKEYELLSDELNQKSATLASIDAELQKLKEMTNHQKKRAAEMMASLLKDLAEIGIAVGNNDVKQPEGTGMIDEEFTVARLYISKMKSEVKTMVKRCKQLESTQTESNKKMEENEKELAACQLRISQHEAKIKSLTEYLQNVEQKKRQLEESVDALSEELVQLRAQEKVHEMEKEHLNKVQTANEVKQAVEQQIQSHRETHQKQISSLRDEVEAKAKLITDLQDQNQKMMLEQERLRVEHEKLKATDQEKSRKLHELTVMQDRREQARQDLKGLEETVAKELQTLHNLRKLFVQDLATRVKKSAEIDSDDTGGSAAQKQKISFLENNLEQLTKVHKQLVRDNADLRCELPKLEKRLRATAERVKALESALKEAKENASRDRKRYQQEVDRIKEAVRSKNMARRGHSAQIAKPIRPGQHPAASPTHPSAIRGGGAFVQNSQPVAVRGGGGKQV
Experiment: Inhibition of KIF5B-RET fusion protein (unknown origin) expressed in mouse BaF3 cells assessed as reduction in cell proliferation measured after 48 hrs by MTS assay
Format: cell-based
Settings: not given
Cc1ccc(C(=O)Nc2ccc(CN3CCN(C)CC3)c(C(F)(F)F)c2)cc1Oc1nc(-c2ccncc2)nc2c1cnn2C gave a GI50 of 36 nM. Work on CN1CCN(Cc2ccc(NC(=O)c3cc(Oc4nc(-c5ccncc5)nc5c4cnn5C)ccc3Cl)cc2C(F)(F)F)CC1 yielded a GI50 of 130 nM. With Cc1ccc(C(=O)Nc2ccc(CN3CCN(C)CC3)c(C(F)(F)F)c2)cc1Oc1nc(-c2ccncc2)nc2[nH]ncc12 the GI50 was 240 nM. For Cc1ccc(Oc2nc(-c3ccncc3)nc3[nH]ncc23)cc1NC(=O)c1ccc(CN2CCN(C)CC2)c(C(F)(F)F)c1, the GI50 was 4 nM. For CO[C@]1(C(=O)N[C@@H](C)c2ccc(-n3cc(F)cn3)nc2)CC[C@H](c2nc(C)cc(Nc3cc(C)[nH]n3)n2)CC1 [PRALSETINIB], the GI50 was < 4 nM. Compound CN1CCN(Cc2ccc(C(=O)Nc3cc(Oc4nc(-c5ccncc5)nc5[nH]ncc45)ccc3Cl)cc2C(F)(F)F)CC1 has a GI50 of 22 nM. Compound CN1CCN(Cc2ccc(C(=O)Nc3cccc(Oc4nc(-c5cccnc5)nc5c4cnn5C)c3)cc2C(F)(F)F)CC1 has a GI50 of 953 nM. Work on Cc1ccc(C(=O)Nc2ccc(CN3CCN(C)CC3)c(C(F)(F)F)c2)cc1Oc1nc(-c2ccoc2)nc2c1cnn2C yielded a GI50 of 14 nM. Work on Cc1ccc(Oc2nc(-c3ccncc3)nc3c2cnn3C)cc1NC(=O)c1ccc(CN2CCN(C)CC2)c(C(F)(F)F)c1 yielded a GI50 of 6 nM. Work on Cc1ccc(C(=O)Nc2ccc(CN3CCN(C)CC3)c(C(F)(F)F)c2)cc1Oc1nc(-c2cccnc2)nc2c1cnn2C yielded a GI50 of 35 nM. With Cc1ccc(-c2nc(Oc3cc(C(=O)Nc4ccc(CN5CCN(C)CC5)c(C(F)(F)F)c4)ccc3C)c3cnn(C)c3n2)cc1 the GI50 was 152 nM. Cc1ccc(C(=O)Nc2ccc(CN3CCN(C)CC3)c(C(F)(F)F)c2)cc1Oc1nc(-c2ccc(Cl)cc2)nc2c1cnn2C showed a GI50 of 114 nM. For Cc1ccc(C(=O)Nc2ccc(CN3CCN(C)CC3)c(C(F)(F)F)c2)cc1Oc1nc(-c2cccc(Cl)c2)nc2c1cnn2C, the GI50 was 320 nM. With Cc1ccc(C(=O)Nc2cc(CN3CCN(C)CC3)cc(C(F)(F)F)c2)cc1Oc1nc(-c2cccnc2)nc2c1cnn2C the GI50 was 482 nM. With CCn1ncc2c(Oc3cc(C(=O)Nc4ccc(CN5CCN(C)CC5)c(C(F)(F)F)c4)ccc3C)nc(-c3ccncc3)nc21 the GI50 was > 10000 nM. For CN1CCN(Cc2ccc(C(=O)Nc3cccc(Oc4nc(-c5cccnc5)nc5[nH]ncc45)c3)cc2C(F)(F)F)CC1, the GI50 was 820 nM. In the case of Cc1ccc(C(=O)Nc2ccc(CN3CCN(C)CC3)c(C(F)(F)F)c2)cc1Oc1nc(-c2ccsc2)nc2c1cnn2C, the GI50 is reported as 36 nM. Compound Cc1ccc(C(=O)Nc2ccc(CN3CCN(C)CC3)c(C(F)(F)F)c2)cc1Oc1nc(-c2cccc(O)c2)nc2c1cnn2C has a GI50 of 28 nM. Compound CN1CCN(Cc2ccc(C(=O)Nc3cc(Oc4nc(-c5ccncc5)nc5c4cnn5C)ccc3Cl)cc2C(F)(F)F)CC1 has a GI50 of 114 nM.

Tested on: Kinesin-1 heavy chain/ Tyrosine-protein kinase receptor RET (Homo sapiens), P07949+P33176 [V804M]
Experiment: Inhibition of KIF5B-RET V804M mutant fusion protein (unknown origin) expressed in mouse BaF3 cells assessed as reduction in cell proliferation measured after 48 hrs by MTS assay
Format: cell-based
Settings: not given
Cc1ccc(C(=O)Nc2ccc(CN3CCN(C)CC3)c(C(F)(F)F)c2)cc1Oc1nc(-c2ccncc2)nc2c1cnn2C showed a GI50 of 90 nM. For Cc1ccc(Oc2nc(-c3ccncc3)nc3[nH]ncc23)cc1NC(=O)c1ccc(CN2CCN(C)CC2)c(C(F)(F)F)c1, the GI50 was 757 nM. For CO[C@]1(C(=O)N[C@@H](C)c2ccc(-n3cc(F)cn3)nc2)CC[C@H](c2nc(C)cc(Nc3cc(C)[nH]n3)n2)CC1 [PRALSETINIB], the GI50 was < 4 nM. In the case of CN1CCN(Cc2ccc(C(=O)Nc3cc(Oc4nc(-c5ccncc5)nc5[nH]ncc45)ccc3Cl)cc2C(F)(F)F)CC1, the GI50 is reported as 6520 nM. Work on Cc1ccc(C(=O)Nc2ccc(CN3CCN(C)CC3)c(C(F)(F)F)c2)cc1Oc1nc(-c2ccoc2)nc2c1cnn2C yielded a GI50 of 290 nM. Cc1ccc(Oc2nc(-c3ccncc3)nc3c2cnn3C)cc1NC(=O)c1ccc(CN2CCN(C)CC2)c(C(F)(F)F)c1 showed a GI50 of 4210 nM. In the case of Cc1ccc(C(=O)Nc2ccc(CN3CCN(C)CC3)c(C(F)(F)F)c2)cc1Oc1nc(-c2cccnc2)nc2c1cnn2C, the GI50 is reported as 113 nM. With Cc1ccc(C(=O)Nc2ccc(CN3CCN(C)CC3)c(C(F)(F)F)c2)cc1Oc1nc(-c2ccsc2)nc2c1cnn2C the GI50 was 564 nM. Compound COc1cc2nccc(Oc3ccc(NC(=O)C4(C(=O)Nc5ccc(F)cc5)CC4)cc3)c2cc1OC [CABOZANTINIB] has a GI50 of 1210 nM. With Cc1ccc(C(=O)Nc2ccc(CN3CCN(C)CC3)c(C(F)(F)F)c2)cc1Oc1nc(-c2cccc(O)c2)nc2c1cnn2C the GI50 was 274 nM. For CN1CCN(Cc2ccc(C(=O)Nc3cc(Oc4nc(-c5ccncc5)nc5c4cnn5C)ccc3Cl)cc2C(F)(F)F)CC1, the GI50 was 8190 nM.

Target: Coiled-coil domain-containing protein 6/Tyrosine-protein kinase receptor RET (Homo sapiens) (UniProt P07949+Q16204)
Sequence (P07949 29-1114 limits assumed): as the sequence (P07949 29-1114 limits assumed) above
Sequence (Q16204 2-474 partner limits assumed): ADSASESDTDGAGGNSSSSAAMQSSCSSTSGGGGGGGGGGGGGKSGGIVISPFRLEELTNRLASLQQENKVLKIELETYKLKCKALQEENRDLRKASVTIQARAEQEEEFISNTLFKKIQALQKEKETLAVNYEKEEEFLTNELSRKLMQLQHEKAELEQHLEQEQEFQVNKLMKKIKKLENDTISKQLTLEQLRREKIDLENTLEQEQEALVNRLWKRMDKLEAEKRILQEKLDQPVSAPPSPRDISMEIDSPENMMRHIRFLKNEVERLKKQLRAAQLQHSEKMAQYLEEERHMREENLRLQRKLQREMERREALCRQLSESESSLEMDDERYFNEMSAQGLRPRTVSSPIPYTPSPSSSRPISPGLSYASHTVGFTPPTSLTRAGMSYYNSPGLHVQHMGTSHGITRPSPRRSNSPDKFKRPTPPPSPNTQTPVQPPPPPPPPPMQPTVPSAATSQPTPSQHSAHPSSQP
Experiment: Inhibition of CCDC6-RET fusion protein (unknown origin) expressed in mouse BaF3 cells assessed as reduction in cell proliferation measured after 48 hrs by MTS assay
Format: cell-based
Settings: not given
Compound Cc1ccc(C(=O)Nc2ccc(CN3CCN(C)CC3)c(C(F)(F)F)c2)cc1Oc1nc(-c2ccncc2)nc2c1cnn2C has a GI50 of 39 nM. For CN1CCN(Cc2ccc(NC(=O)c3cc(Oc4nc(-c5ccncc5)nc5c4cnn5C)ccc3Cl)cc2C(F)(F)F)CC1, the GI50 was 108 nM. Cc1ccc(C(=O)Nc2ccc(CN3CCN(C)CC3)c(C(F)(F)F)c2)cc1Oc1nc(-c2ccncc2)nc2[nH]ncc12 showed a GI50 of 73 nM. With Cc1ccc(Oc2nc(-c3ccncc3)nc3[nH]ncc23)cc1NC(=O)c1ccc(CN2CCN(C)CC2)c(C(F)(F)F)c1 the GI50 was 4 nM. For CO[C@]1(C(=O)N[C@@H](C)c2ccc(-n3cc(F)cn3)nc2)CC[C@H](c2nc(C)cc(Nc3cc(C)[nH]n3)n2)CC1 [PRALSETINIB], the GI50 was < 4 nM. Compound CN1CCN(Cc2ccc(C(=O)Nc3cc(Oc4nc(-c5ccncc5)nc5[nH]ncc45)ccc3Cl)cc2C(F)(F)F)CC1 has a GI50 of 13 nM. Work on CN1CCN(Cc2ccc(C(=O)Nc3cccc(Oc4nc(-c5cccnc5)nc5c4cnn5C)c3)cc2C(F)(F)F)CC1 yielded a GI50 of 1110 nM. In the case of Cc1ccc(C(=O)Nc2ccc(CN3CCN(C)CC3)c(C(F)(F)F)c2)cc1Oc1nc(-c2ccoc2)nc2c1cnn2C, the GI50 is reported as 75 nM. Cc1ccc(Oc2nc(-c3ccncc3)nc3c2cnn3C)cc1NC(=O)c1ccc(CN2CCN(C)CC2)c(C(F)(F)F)c1 showed a GI50 of 13 nM. Cc1ccc(C(=O)Nc2ccc(CN3CCN(C)CC3)c(C(F)(F)F)c2)cc1Oc1nc(-c2cccnc2)nc2c1cnn2C showed a GI50 of 39 nM. Compound Cc1ccc(-c2nc(Oc3cc(C(=O)Nc4ccc(CN5CCN(C)CC5)c(C(F)(F)F)c4)ccc3C)c3cnn(C)c3n2)cc1 has a GI50 of 847 nM. Cc1ccc(C(=O)Nc2ccc(CN3CCN(C)CC3)c(C(F)(F)F)c2)cc1Oc1nc(-c2ccc(Cl)cc2)nc2c1cnn2C showed a GI50 of 696 nM. With Cc1ccc(C(=O)Nc2ccc(CN3CCN(C)CC3)c(C(F)(F)F)c2)cc1Oc1nc(-c2cccc(Cl)c2)nc2c1cnn2C the GI50 was 807 nM. Cc1ccc(C(=O)Nc2cc(CN3CCN(C)CC3)cc(C(F)(F)F)c2)cc1Oc1nc(-c2cccnc2)nc2c1cnn2C showed a GI50 of 264 nM. With CCn1ncc2c(Oc3cc(C(=O)Nc4ccc(CN5CCN(C)CC5)c(C(F)(F)F)c4)ccc3C)nc(-c3ccncc3)nc21 the GI50 was > 10000 nM. CN1CCN(Cc2ccc(C(=O)Nc3cccc(Oc4nc(-c5cccnc5)nc5[nH]ncc45)c3)cc2C(F)(F)F)CC1 showed a GI50 of 342 nM. Compound Cc1ccc(C(=O)Nc2ccc(CN3CCN(C)CC3)c(C(F)(F)F)c2)cc1Oc1nc(-c2ccsc2)nc2c1cnn2C has a GI50 of 449 nM. COc1cc2nccc(Oc3ccc(NC(=O)C4(C(=O)Nc5ccc(F)cc5)CC4)cc3)c2cc1OC [CABOZANTINIB] showed a GI50 of 29 nM. In the case of Cc1ccc(C(=O)Nc2ccc(CN3CCN(C)CC3)c(C(F)(F)F)c2)cc1Oc1nc(-c2cccc(O)c2)nc2c1cnn2C, the GI50 is reported as 178 nM. Compound CN1CCN(Cc2ccc(C(=O)Nc3cc(Oc4nc(-c5ccncc5)nc5c4cnn5C)ccc3Cl)cc2C(F)(F)F)CC1 has a GI50 of 16 nM.
